One molecule from patent EP4759807A1, “PROTEOLYSIS TARGETING CHIMERA COMPOUND FOR DEGRADING IRAK4 AND USE THEREOF” (Shenzhen Zhongge Biological Technology Co., Ltd., priority 2023, dated 2025) can be followed below.

Structures are written as SMILES. Like-named read-outs stand apart in the source and are kept apart here.

The target in data set [1] is T1, CYP1A2 (Homo sapiens, UniProt P05177).
T1 construct: 0.05 mg/mL liver microsomes (BioIVT, IHG) phosphate buffer solution; tissue BioIVT IHG; host or cells: human liver microsomes
T1 sequence (P05177 1-516): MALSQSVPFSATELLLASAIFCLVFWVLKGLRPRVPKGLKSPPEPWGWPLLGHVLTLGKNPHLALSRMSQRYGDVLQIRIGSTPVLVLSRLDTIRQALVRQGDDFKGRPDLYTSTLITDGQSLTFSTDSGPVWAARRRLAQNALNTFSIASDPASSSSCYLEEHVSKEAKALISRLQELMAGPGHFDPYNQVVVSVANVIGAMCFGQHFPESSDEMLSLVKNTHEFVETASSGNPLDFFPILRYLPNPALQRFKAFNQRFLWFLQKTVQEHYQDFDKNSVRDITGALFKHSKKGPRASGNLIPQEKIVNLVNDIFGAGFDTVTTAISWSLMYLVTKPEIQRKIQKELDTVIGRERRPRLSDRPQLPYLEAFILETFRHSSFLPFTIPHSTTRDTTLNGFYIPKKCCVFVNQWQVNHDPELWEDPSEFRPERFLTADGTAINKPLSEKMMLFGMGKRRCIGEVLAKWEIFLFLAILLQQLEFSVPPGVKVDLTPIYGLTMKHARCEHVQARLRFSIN
The experiment in a line: Inhibitory effect on human liver microsome CYP450 enzyme. The note with it: human liver microsomes, substrate Phenacetin. Format: in vitro ADME. The protocol:
(§1) In this experiment, the compound, liver microsomes and different CYP isoform enzyme substrates were incubated in a 37°C water bath, the amount of substrate metabolites generated was measured, and the inhibitory effect of the compound of the present disclosure on CYP enzyme was evaluated based on the IC50 value.
(§2) i. The compound was diluted with DMSO (Aladdin, catalog number: D103273-500ml) to concentrations of 0, 0.02, 0.06, 0.2, 0.6, 2 and 6 mM. The positive reference inhibitors for each CYP isoform and their concentrations are shown in Table 4 Table 4 Positive reference inhibitors for CYP isoform enzymes and their concentrations
(§3) ii. Phosphate buffer (sigma: V900050-500G) was used to formulate the substrate solution for each CYP isoform enzyme. Table 5 The substrate and the concentration thereof for CYP isoform enzyme
(§4) iii. Sample incubation. 1 µL of each concentration of the compound and positive reference inhibitor for CYP isoform enzyme were taken and placed into a 96-deep well plate (A-gen: P-1.0-RD-96-S), and 169 µL of 0.05 mg/mL liver microsomes (BioIVT, IHG) phosphate buffer solution (using 0.2 mg/mL liver microsomes for CYP2C19) was added. After uniform mixing, the plate was placed in a 37°C water bath (Shanghai Jinghong Experimental Equipment Co., Ltd., DK-500) with shaking for pre-incubation for 15 min. 10 µL of substrate (adding 1 µL of substrate for CYP3A4-Testosterone) and 20 µL of 10 mM NADPH phosphate buffer solution (MCE, HYF003/CS-4998) were added. After uniform mixing, the plate was incubated in a water bath with shaking for the following time: CYP1A2: 20 min, CYP2C9: 10 min, CYP2C19: 10 min, CYP2D6: 10 min, CYP3A4-Testosterone: 10 min, CYP3A4-Midazolam: 5 min. 400 µL of glacial acetonitrile/methanol (v/v, 1:1) containing an internal standard (500 nM tolbutamide, 5 nM terfenadine) was added to terminate the reaction. After centrifugation at 4000 rpm at 4°C for 40 min, the supernatant was taken and diluted with pure water according to the response of the metabolite of the substrate, and then UPLC-MS/MS (Sciex, Q-Trap 4500) was used for detection to obtain the peak area. The C18 chromatographic column was Kinetex 2.6u C18 100A (50 mm*3 mm).
(§5) The inhibitory effect of the compound on each P450 enzyme in human liver microsomes was calculated as the percentage of reduced metabolite formation compared with the non-inhibitory control (i.e. blank DMSO). The IC50 value of the compound for each P450 enzyme in human liver microsomes was calculated with the logarithm of the remaining activity and the inhibitor concentration using Graphpad Prism software. The calculation equation was as follows: Peak area ratio = compound peak area / internal standard peak area [formula] [formula]
(§6) In Graphpad Prism software, the IC50 value was calculated using the standard four-parameter curve fitting algorithm.

Data set [2] concerns the target T2, CYP2C19 (Homo sapiens, UniProt P33261).
T2 construct: (using 0.2 mg/mL liver microsomes for CYP2C19); tissue BioIVT IHG; host or cells: human liver microsomes
The description is as above. The format is in vitro ADME. The note with it: human liver microsomes, substrate Mephenytoin. The method, then:
as §1, §2, §3, §4, §5, §6

Data set [3] addresses T3, CYP2C9 (Homo sapiens, UniProt P11712).
T3 construct: 0.05 mg/mL liver microsomes (BioIVT, IHG) phosphate buffer solution; tissue BioIVT IHG; host or cells: human liver microsomes
Described as above. Format: in vitro ADME. The note with it: human liver microsomes, substrate Diclofenac Sodium. The method, then:
as §1, §2, §3, §4, §5, §6

Data set [4] deals with T4, CYP2D6 (Homo sapiens, UniProt P10635).
T4 construct: 0.05 mg/mL liver microsomes (BioIVT, IHG) phosphate buffer solution; tissue BioIVT IHG; host or cells: human liver microsomes
T4 sequence (P10635 whole entry): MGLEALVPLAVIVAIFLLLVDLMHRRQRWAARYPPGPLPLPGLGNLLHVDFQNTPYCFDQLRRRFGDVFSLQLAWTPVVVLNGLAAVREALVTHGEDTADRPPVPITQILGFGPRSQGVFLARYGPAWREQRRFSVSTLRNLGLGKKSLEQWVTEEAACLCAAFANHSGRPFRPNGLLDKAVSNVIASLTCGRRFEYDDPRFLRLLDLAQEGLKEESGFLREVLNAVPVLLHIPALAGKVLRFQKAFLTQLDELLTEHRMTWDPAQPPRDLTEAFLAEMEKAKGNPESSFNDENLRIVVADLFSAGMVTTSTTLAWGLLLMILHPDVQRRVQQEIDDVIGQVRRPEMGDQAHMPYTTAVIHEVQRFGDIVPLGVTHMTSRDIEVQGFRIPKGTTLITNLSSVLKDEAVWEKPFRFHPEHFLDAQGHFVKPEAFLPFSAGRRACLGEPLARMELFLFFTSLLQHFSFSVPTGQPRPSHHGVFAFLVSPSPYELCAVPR
The data set is described as above. The conditions noted are these: human liver microsomes, substrate Dextromethorphan. The format is in vitro ADME. The protocol: as §1, §2, §3, §4, §5, §6

Data set [5] addresses T5, CYP3A4 (Homo sapiens, UniProt P08684).
T5 construct: 0.05 mg/mL liver microsomes (BioIVT, IHG) phosphate buffer solution; tissue BioIVT IHG; host or cells: human liver microsomes
The data set is described as above. The format is in vitro ADME. The conditions noted are these: liver microsomes. The protocol:
as §1, §2, §3, §4, §5, §6

Data set [6] addresses T6, hERG ion channel (Homo sapiens, UniProt Q12809).
T6 construct: host or cells: HEK293
Nature of the data set: Inhibitory effect on hERG ion channels (manual patch clamp). The format is cell-based. The conditions noted are these: HEK293 cells stably expressing hERG channels, read-out: hERG (IC50, manupatch). The protocol:
In this experiment, the inhibitory effect of the compound on the hERG ion channel was detected by a manual patch clamp electrophysiological method, and the cardiac safety was evaluated based on the single concentration inhibition rate or IC50 of the compound.
The cells used in this experiment were HEK293 cell lines transfected with hERG cDNA and stably expressing hERG channels (#60187, provided by BPS, P3-P23 generations were used for experimental research). The cells was cultured in a medium containing the following components: MEM medium, 10% (v/v) inactivated fetal bovine serum, 1 mM sodium pyruvate, 500 µg geneticin, 0.1 mM non-essential amino acids, 100 U penicillin-streptomycin. HEK293 hERG cells were grown in a culture flask containing the above culture solution and cultured in an incubator at 37°C and 5% CO2. […]
A manual patch clamp system (HEKA EPC-10 signal amplifier and digital conversion system, purchased from HEKA Electronics, Germany) was used to record whole-cell currents in electrophysiological experiments. […] After the hERG current recorded in the above steps reached stabilization under the continuous perfusion of extracellular solution in the recording chamber, different concentrations of the compound to be tested could be perfused until the inhibitory effect of the drug on the hERG current reached a stable state. […]

T5 sequence (P08684 whole entry): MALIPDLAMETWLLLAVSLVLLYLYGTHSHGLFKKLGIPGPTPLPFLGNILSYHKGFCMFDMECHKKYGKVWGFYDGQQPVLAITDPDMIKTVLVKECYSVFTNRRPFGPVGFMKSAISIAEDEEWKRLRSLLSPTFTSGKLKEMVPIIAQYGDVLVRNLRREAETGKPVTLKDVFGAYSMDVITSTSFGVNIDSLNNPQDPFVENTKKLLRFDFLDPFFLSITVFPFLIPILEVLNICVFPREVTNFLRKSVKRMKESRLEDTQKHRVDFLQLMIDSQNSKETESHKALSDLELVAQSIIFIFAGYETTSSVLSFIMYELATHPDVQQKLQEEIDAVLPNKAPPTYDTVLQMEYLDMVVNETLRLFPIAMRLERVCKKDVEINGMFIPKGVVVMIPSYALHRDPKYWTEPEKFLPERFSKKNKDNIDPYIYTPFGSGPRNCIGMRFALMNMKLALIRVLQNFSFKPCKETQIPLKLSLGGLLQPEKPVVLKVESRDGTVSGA
T6 sequence (Q12809 whole entry): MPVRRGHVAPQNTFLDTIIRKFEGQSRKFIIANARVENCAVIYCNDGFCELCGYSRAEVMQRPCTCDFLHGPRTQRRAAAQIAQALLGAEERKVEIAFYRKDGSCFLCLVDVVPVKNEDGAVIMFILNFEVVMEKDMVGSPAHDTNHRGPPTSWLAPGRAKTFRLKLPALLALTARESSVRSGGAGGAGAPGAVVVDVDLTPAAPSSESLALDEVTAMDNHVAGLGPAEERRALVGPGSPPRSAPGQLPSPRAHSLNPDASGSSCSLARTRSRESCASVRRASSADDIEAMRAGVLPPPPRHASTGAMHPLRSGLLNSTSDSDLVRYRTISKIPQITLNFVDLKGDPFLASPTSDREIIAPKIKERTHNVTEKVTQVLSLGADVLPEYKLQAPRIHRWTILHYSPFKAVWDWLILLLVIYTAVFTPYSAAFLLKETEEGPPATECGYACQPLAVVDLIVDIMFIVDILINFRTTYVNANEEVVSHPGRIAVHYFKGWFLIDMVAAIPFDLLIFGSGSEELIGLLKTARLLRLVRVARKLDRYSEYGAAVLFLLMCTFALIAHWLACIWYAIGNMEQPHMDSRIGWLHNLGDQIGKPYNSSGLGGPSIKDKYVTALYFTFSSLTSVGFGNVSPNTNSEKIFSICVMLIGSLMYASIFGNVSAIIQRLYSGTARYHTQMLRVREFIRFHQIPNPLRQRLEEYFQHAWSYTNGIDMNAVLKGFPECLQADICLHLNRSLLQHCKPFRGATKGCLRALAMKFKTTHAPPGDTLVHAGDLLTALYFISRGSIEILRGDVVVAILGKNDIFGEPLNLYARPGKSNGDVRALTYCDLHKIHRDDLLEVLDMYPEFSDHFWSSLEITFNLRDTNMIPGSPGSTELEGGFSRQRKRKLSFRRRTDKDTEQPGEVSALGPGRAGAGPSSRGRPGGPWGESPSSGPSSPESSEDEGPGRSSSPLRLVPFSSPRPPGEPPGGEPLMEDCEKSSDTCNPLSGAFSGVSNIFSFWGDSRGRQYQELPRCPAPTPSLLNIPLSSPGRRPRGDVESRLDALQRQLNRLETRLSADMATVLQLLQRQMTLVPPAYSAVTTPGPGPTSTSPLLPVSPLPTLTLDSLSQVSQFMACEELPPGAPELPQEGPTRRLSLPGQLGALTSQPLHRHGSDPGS
T3 sequence (P11712 whole entry): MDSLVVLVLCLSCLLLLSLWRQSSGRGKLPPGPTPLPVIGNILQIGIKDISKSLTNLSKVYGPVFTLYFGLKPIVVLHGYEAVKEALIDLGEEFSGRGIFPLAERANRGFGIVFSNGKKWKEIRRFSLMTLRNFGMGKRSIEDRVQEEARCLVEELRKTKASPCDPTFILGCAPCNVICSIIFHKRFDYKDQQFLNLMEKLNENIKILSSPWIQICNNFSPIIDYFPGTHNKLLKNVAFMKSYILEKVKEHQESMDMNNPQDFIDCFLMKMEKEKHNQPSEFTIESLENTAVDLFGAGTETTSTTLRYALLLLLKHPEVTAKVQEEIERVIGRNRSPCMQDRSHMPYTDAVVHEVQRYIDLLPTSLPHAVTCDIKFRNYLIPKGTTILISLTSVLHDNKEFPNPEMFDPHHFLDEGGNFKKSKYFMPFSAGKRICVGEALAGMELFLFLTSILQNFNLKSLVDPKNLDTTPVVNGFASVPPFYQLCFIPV
T2 sequence (P33261 whole entry): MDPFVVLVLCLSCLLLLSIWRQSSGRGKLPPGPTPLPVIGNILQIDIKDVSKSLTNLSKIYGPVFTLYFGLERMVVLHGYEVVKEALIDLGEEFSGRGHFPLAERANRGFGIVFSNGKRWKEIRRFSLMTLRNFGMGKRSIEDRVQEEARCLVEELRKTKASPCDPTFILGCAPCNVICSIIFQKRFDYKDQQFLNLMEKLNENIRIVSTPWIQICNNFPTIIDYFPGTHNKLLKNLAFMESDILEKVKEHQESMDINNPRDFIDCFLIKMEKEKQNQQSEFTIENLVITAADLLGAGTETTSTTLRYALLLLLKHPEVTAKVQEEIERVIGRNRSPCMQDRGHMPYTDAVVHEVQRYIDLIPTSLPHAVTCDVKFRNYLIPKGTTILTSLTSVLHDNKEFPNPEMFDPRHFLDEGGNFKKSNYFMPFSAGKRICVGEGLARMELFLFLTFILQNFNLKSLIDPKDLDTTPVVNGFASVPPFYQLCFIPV

Regarding `Cn1c(=O)n(C2CCC(=O)NC2=O)c2cccc(C#CCOC3CCN(C[C@H]4CC[C@H](n5cc(NC(=O)c6cnn7ccc(N8C[C@H]9C[C@@H]8CO9)nc67)c(C(F)F)n5)CC4)CC3)c21` (stereo partly shown) [KT474, reference compound], the IC50 in data set [1] was greater than 30 µM; in data set [2], 3.81 µM; in data set [3], 9.61 µM; in data set [4], greater than 30 µM; in data set [5] (substrate Midazolam, read-out: IC50 (µM) CYP3A4-M) it was 15.1 µM; in data set [5] (substrate Testosterone, read-out: IC50 (µM) CYP3A4-T), greater than 30 µM. Moreover, the half-inhibitory concentration (IC50) in data set [6] was determined as 2.65 µM.
